Source: patent US9439980B2, “Thymidylate kinase fusions and uses thereof” (priority 2008, dated 2016)

Test system: Jurkat cells
Assay: HPLC determination of AZT metabolites in cells treated with 100 μM AZT
Type: cell-based, human
Conditions: 36 hrs
Experimental: The cells were cultured in the presence of 100 μM AZT for 36 hrs. 10^7 cells were homogenized by sonication in 100 μl of 5% (w/v) trichloroacetic acid. The supernatant is collected after homogenate had been centrifuged at 10,000×g for 15 min at 4° C. The trichloroacetic acid was removed by extraction with an equal volume of 20% tri-n-octylamine in pentane. The neutralized aqueous fraction is directly injected into HPLC. Separation of AZT and its metabolites was performed on a C18 column (Waters) with a mobile phase composed of 0.2 M phosphate buffer containing 4 mM tetrabutylammonium hydrogen sulfate (pH 7.5) and acetonitrile in the ratio of 97:3 (v/v). The mobile phase was pumped at a flow rate of 1.5 ml/min. The UV absorbance was monitored at 270 nm. Five million cell equivalents were injected and analyzed in triplicate.

Cc1cn([C@H]2C[C@H](N=[N+]=[N-])[C@@H](CO)O2)c(=O)[nH]c1=O [AZT, 3′-azido-3′-deoxythymidine]
conversion ratio of AZT-TP to AZT-MP in non-transduced cells: 0.02
